Data: US12544453B2, “Amphotericin B conjugated stabilized gold nanoparticles and uses thereof” (Max-Planck-Gesellschaft zur Förderung der Wissenschaften …, priority 2019, dated 2026)
In brackets after ≈: the same amount, converted by molar mass. Where two headings read alike, the source gives them in different places.

Columns and labels:
Assay in all cases: Antifungal susceptibility testing, broth microdilution MIC
Type in all cases: cell-based
Candida parapsilosis = settings: Lodderomyces parapsilosis, read-out: Minimum Inhibitory Concentration (MIC)
Experimental: (§1) The minimum inhibitory concentrations (MICs) of fluconazole, amphotericin B, amphotericin B thiohexose or thiopentose stabilized gold nanoparticles, and of naked gold nanoparticles were determined using broth microdilution methods following the guidelines of the Clinical and Laboratory Standards Institute (Reference Method for Broth Dilution Antifungal Susceptibility Testing of Yeasts, Alexander B. D., 2017, M27-A4). Microtiter 96-well plates containing two-fold serial dilutions, at final concentrations ranging from […], of the test agents in RPMI-1640 medium (buffered with MOPS and adjusted to pH=7) were inoculated with the freshly-prepared fungal suspensions. Microtiter plates were incubated at 35° C. for 24-72 hrs according to the tested species.

Candida krusei = settings: Pichia kudriavzevii, read-out: Minimum Inhibitory Concentration (MIC)
Experimental: as §1

Candida glabrata = settings: Nakaseomyces glabratus, fluconazole MIC50 (50% growth reduction), read-out: Minimum Inhibitory Concentration (MIC)
Experimental: as §1

Aspergillus fumigatus = settings: read-out: Minimum Inhibitory Concentration (MIC)
Experimental: as §1

Candida albicans = settings: read-out: Minimum Inhibitory Concentration (MIC)
Experimental: as §1

Cryptococcus gatti = settings: read-out: Minimum Inhibitory Concentration (MIC)
Experimental: as §1

Candida tropicalis = system: Candida tropicalis
Experimental: as §1

Cryptococcus neoformans = settings: read-out: Minimum Inhibitory Concentration (MIC)
Experimental: as §1

Candida auris = settings: Candidozyma auris, fluconazole MIC50 (50% growth reduction), read-out: Minimum Inhibitory Concentration (MIC)
Experimental: as §1

MIC (Candida parapsilosis; ATCC22019): 2 µg/mL (≈ 6.53 µM) | MIC (Candida parapsilosis): 0.5 µg/mL (≈ 1.63 µM) | MIC (Candida krusei; ATCC14243): 16 µg/mL (≈ 52.2 µM) | MIC (Candida krusei; ATCC34135): 16 µg/mL (≈ 52.2 µM) | MIC (Candida krusei): 16 µg/mL (≈ 52.2 µM) | MIC (Candida glabrata; ATCC2001, Candida glabrata ATCC 2001): 4 µg/mL (≈ 13.1 µM) | MIC (Candida glabrata; ATCC66032, Candida glabrata ATCC 66032): 8 µg/mL (≈ 26.1 µM) | MIC (Candida glabrata; Candida glabrata ATCC MYA-2950): 8 µg/mL (≈ 26.1 µM) | MIC (Candida glabrata; Candida glabrata CAB 524041): 4 µg/mL (≈ 13.1 µM) | MIC (Aspergillus fumigatus; Aspergillus fumigatus NR-35303, fluconazole MIC50 (50% growth reduction)): 128 µg/mL (≈ 418 µM) | MIC (Aspergillus fumigatus; Aspergillus fumigatus NR-35304, fluconazole MIC50 (50% growth reduction)): > 128 µg/mL | MIC (Aspergillus fumigatus; Aspergillus fumigatus NR-41312, fluconazole MIC50 (50% growth reduction)): 128 µg/mL (≈ 418 µM) | MIC (Candida albicans; ATCC10231, Candida albicans ATCC 10231, fluconazole MIC50 (50% growth reduction)): 2 µg/mL (≈ 6.53 µM) | MIC (Candida albicans; ATCC26790, Candida albicans ATCC 26790, fluconazole MIC50 (50% growth reduction)): 1 µg/mL (≈ 3.27 µM) | MIC (Candida albicans; ATCC64124, Candida albicans ATCC 64124, fluconazole MIC50 (50% growth reduction)): 128 µg/mL (≈ 418 µM) | MIC (Candida albicans; Candida albicans NR 29446, fluconazole MIC50 (50% growth reduction)): > 128 µg/mL | MIC (Candida albicans; Candida albicans NR 29448, fluconazole MIC50 (50% growth reduction)): > 128 µg/mL | MIC (Candida albicans; SC5314, Candida albicans SC5314, fluconazole MIC50 (50% growth reduction)): 0.5 µg/mL (≈ 1.63 µM) | MIC (Cryptococcus gatti; Cryptococcus gatti NR-43208, fluconazole MIC50 (50% growth reduction)): 8 µg/mL (≈ 26.1 µM) | MIC (Cryptococcus gatti; Cryptococcus gatti NR-43209, fluconazole MIC50 (50% growth reduction)): 16 µg/mL (≈ 52.2 µM) | MIC (Cryptococcus gatti; Cryptococcus gatti NR-43210, fluconazole MIC50 (50% growth reduction)): 16 µg/mL (≈ 52.2 µM) | MIC (Cryptococcus gatti; Cryptococcus gatti NR-43213, fluconazole MIC50 (50% growth reduction)): 8 µg/mL (≈ 26.1 µM) | MIC (Candida tropicalis; ATCC1369, read-out: Minimum Inhibitory Concentration (MIC)): 0.5 µg/mL (≈ 1.63 µM) | MIC (Candida tropicalis; ATCC13803, read-out: Minimum Inhibitory Concentration (MIC)): 0.25 µg/mL (≈ 0.816 µM) | MIC (Cryptococcus neoformans; Cryptococcus neoformans NR-41291, fluconazole MIC50 (50% growth reduction)): 16 µg/mL (≈ 52.2 µM) | MIC (Cryptococcus neoformans; Cryptococcus neoformans NR-41295, fluconazole MIC50 (50% growth reduction)): 32 µg/mL (≈ 104 µM) | MIC (Cryptococcus neoformans; Cryptococcus neoformans NR-41298, fluconazole MIC50 (50% growth reduction)): 4 µg/mL (≈ 13.1 µM) | MIC (Cryptococcus neoformans; Cryptococcus neoformans NR-48767, fluconazole MIC50 (50% growth reduction)): 4 µg/mL (≈ 13.1 µM) | MIC (Candida auris; Candida auris 381): 1 µg/mL (≈ 3.27 µM) | MIC (Candida auris; Candida auris 385): > 128 µg/mL | MIC (Candida auris; Candida auris 386): > 128 µg/mL | MIC (Candida auris; Candida auris 389): > 128 µg/mL | MIC (Candida auris; Candida auris 390): > 128 µg/mL
Compound: OC(Cn1cncn1)(Cn1cncn1)c1ccc(F)cc1F [Fluconazole]
